# Experimental data as given in patent US20030158250A1, “Agents correcting gene expression regulatory error” (priority 2000, published 2003).
# Experiments:
# Assay type in all cases: cell-based
# [1] = tested on: SCO (cytochrome oxidase deficient, yeast) homolog-2 (SCO2); assay: RT-PCR expression level of SCO2 gene in monocytes; conditions: human monocytes, 30 PCR cycles
# Experimental: (§1) Four-hundred milliliters of blood was collected from a human normal individual donor. The collected blood was diluted 2-folds with PBS(−), overlaid on Ficoll-paque (manufactured by Pharmacia), and centrifuged at 500×g for 20 minutes. The peripheral blood mononuclear cells (PBMCs) in the intermediate layer was collected with a pipette, and washed with RPMI 1640 medium (manufactured by Bio Whittaker). The collected PBMCs was suspended in a storage solution of 90% FCS (manufactured by JRH Biosciences)/10% dimethyl sulfoxide, and stored in liquid nitrogen. During the experiment, these stored PBMCs were rapidly melted in water bath at 37° C., and washed with RPMI 1640 medium containing 10 μg/ml Dnase (manufactured by Calbiochem). Thereafter, the number of living cells was calculated by trypan blue staining method, and subjected to each experiment.
# (§2) PBMCs were suspended in RPMI 1640 medium containing 5% human serum of blood type-AB, 0.1 mM nonessential amino acid, 1 mM sodium pyruvate, 2 mM L-glutamine (hereinabove manufactured by Bio Whittaker), 10 mM HEPES (manufactured by nakalai tesque), and 1% streptomycin-penicillin (manufactured by Gibco BRL) (hereinafter simply referred to as “5HRPMI medium”) so as to have a concentration of 4×10^6 cells/ml. Thereafter, the suspension was spread on a 6-well cell culture plate (manufactured by Falcon) in a volume of 3 ml/well, and the cells were incubated in a wet-type incubator at 37° C. and 5% CO2 for 1.5 hours. After 1.5 hours, the non-adherent cells were removed by suction, and each well was washed with RPMI 1640 medium, and 2 ml of the 5HRPMI medium was added to the wells, to give monocytes.
# (§3) To the monocytes obtained above was added in each well 8 μl of an aqueous DGE solution, or 8 μl of water as a control, and the cells were incubated in a wet-type incubator at 37° C. and 5% CO2 for 5 hours. Thereafter, with addition of 2 μl of a 1 μg/ml aqueous LPS solution or 2 μl of a 25 μM TPA dimethyl sulfoxide solution to each well, or with addition of neither of these substances thereto, the cells were cultured for additional 4 hours. Thereafter, RNA was prepared from each cell in accordance with the description of the kit using RNeasy Mini Kit (manufactured by QIAGEN, 74104). The group with addition of water alone or the aqueous DGE solution alone to the cells was set as a negative control, and the group with addition of water and the aqueous LPS solution or the aqueous TPA solution to the cells was set as a positive control.
# (§4) A liquid mixture having a total volume of 60 μl of 0.5 μg of RNA prepared above, 10 mM Tris-HCl (pH 8.3), 50 mM KCl, 5 mM MgCl2, 1 mM dNTP mixtures, 150 pmol of Random 6 mers, 60 U Ribonuclease Inhibitor (manufactured by Takara Shuzo Co., Ltd., 2310A), and 15 U Reverse Transcriptase XL (AMV) (manufactured by Takara Shuzo Co., Ltd., 2620A) were incubated at 30° C. for 10 minutes and thereafter at 42° C. for 1 hour using a thermal cycler (GeneAmp PCR System 9600, manufactured by Applied Biosystems), and the mixture was heated at 99° C. for 5 minutes to deactivate the enzyme, to give cDNA.
# (§5) Oligonucleotide primers for reaction of PCR were designed based on mRNA nucleotide sequence of each gene listed in the following tables, and synthesized in the same manner as above. In Tables 4 and 5, each gene evaluated in this Example, GenBank Accession NO, the name of oligonucleotide primers and SEQ ID NOs of the primers in Sequence Listing were listed. […]
# [2] = tested on: macrophage-derived chemokine (MDC); assay: RT-PCR expression level of MDC gene in monocytes; conditions: human monocytes, 30 PCR cycles
# Experimental: as §1, §2, §3, §4, §5
# [3] = tested on: properdin P factor, complement (PFC); assay: RT-PCR expression level of PFC gene in monocytes; conditions: human monocytes, 35 PCR cycles
# Experimental: as §1, §2, §3, §4, §5
# [4] = tested on: macrophage inflammatory protein-2-β (MIP2β); assay: RT-PCR expression level of MIP2β gene in monocytes; conditions: human monocytes, 30 PCR cycles
# Experimental: as §1, §2, §3, §4, §5
# [5] = tested on: macrophage inflammatory protein-2-α (MIP2α); assay: RT-PCR expression level of MIP2α gene in monocytes; conditions: human monocytes, 35 PCR cycles
# Experimental: as §1, §2, §3, §4, §5
# CD37 antigen (CD37) = assay: RT-PCR expression level of CD37 gene in monocytes; conditions: human monocytes, 35 PCR cycles
# Experimental: as §1, §2, §3, §4, §5
# lyzozyme (Lyz) = assay: RT-PCR expression level of Lyz gene in monocytes; conditions: human monocytes, 30 PCR cycles
# Experimental: as §1, §2, §3, §4, §5
# [6] = tested on: migration inhibitory factor-related protein-8 (MRP8); assay: RT-PCR expression level of MRP8 gene in monocytes; conditions: human monocytes, 30 PCR cycles
# Experimental: as §1, §2, §3, §4, §5
# interleukin-1β (IL-1β) = assay: RT-PCR expression level of IL-1β gene in monocytes; conditions: human monocytes, 30 PCR cycles
# Experimental: as §1, §2, §3, §4, §5
# [7] = tested on: liver and activation-regulated chemokine (LARC); assay: RT-PCR expression level of LARC gene in monocytes; conditions: human monocytes, 30 PCR cycles
# Experimental: as §1, §2, §3, §4, §5
# [8] = tested on: tumor necrosis factor α (TNFα); assay: RT-PCR expression level of TNFα gene in monocytes; conditions: human monocytes, 30 PCR cycles
# Experimental: as §1, §2, §3, §4, §5
# [9] = tested on: growth regulated protein-1 (Gro1); assay: RT-PCR expression level of Gro1 gene in monocytes; conditions: human monocytes, 30 PCR cycles
# Experimental: as §1, §2, §3, §4, §5
# [10] = tested on: regulator of G-protein signaling-2 (RGS2); assay: RT-PCR expression level of RGS2 gene in monocytes; conditions: human monocytes, 35 PCR cycles
# Experimental: as §1, §2, §3, §4, §5
# interleukin-6 (IL-6) = assay: RT-PCR expression level of IL-6 gene in monocytes; conditions: human monocytes, 30 PCR cycles
# Experimental: as §1, §2, §3, §4, §5
# [11] = L + D: DGE and LPS, LPS alone −
# [12] = T + D: DGE and TPA, TPA alone +
# [13] = substance added alone, Con. (water) +
# [14] = L + D: DGE and LPS, LPS alone +
# [15] = substance added alone, Con. (water) −
# [16] = L + D: DGE and LPS, LPS alone ++
# [17] = T + D: DGE and TPA, TPA alone ++
# [18] = substance added alone, Con. (water) +/−
# [19] = T + D: DGE and TPA, TPA alone +/−
# [20] = L + D: DGE and LPS, LPS alone +/−
# [21] = L + D: DGE and LPS, LPS alone +++
molecule,measurement,setting,value
"O=C1C=CC(CO)OC1O [DGE, L-glycero-1,5-epoxy-1αβ,6-dihydroxy-cis-hex-3-en-2-one]",expression level of SCO2 gene,[1]; [11],+
same,expression level of SCO2 gene,[1]; [12],+
same,expression level of SCO2 gene,[1]; [13],+
same,expression level of MDC gene,[2]; [14],−
same,expression level of MDC gene,"[2]; T + D: DGE and TPA, TPA alone −",−
same,expression level of MDC gene,[2]; [15],−
same,expression level of PFC gene,[3]; [11],+
same,expression level of PFC gene,[3]; [12],+
same,expression level of PFC gene,[3]; [13],+
same,expression level of MIP2β gene,[4]; [16],+
same,expression level of MIP2β gene,[4]; [17],+
same,expression level of MIP2β gene,[4]; [13],+
same,expression level of MIP2α gene,[5]; [14],+/−
same,expression level of MIP2α gene,[5]; [12],+/−
same,expression level of MIP2α gene,[5]; [18],+/−
same,expression level of CD37 gene,CD37 antigen (CD37); [11],+
same,expression level of CD37 gene,CD37 antigen (CD37); [19],+/−
same,expression level of CD37 gene,CD37 antigen (CD37); [18],+/−
same,expression level of Lyz gene,lyzozyme (Lyz); [20],+
same,expression level of Lyz gene,lyzozyme (Lyz); [19],+
same,expression level of Lyz gene,lyzozyme (Lyz); [13],+
same,expression level of MRP8 gene,[6]; [20],+
same,expression level of MRP8 gene,[6]; [19],+
same,expression level of MRP8 gene,[6]; [13],+
same,expression level of IL-1β gene,interleukin-1β (IL-1β); [21],+
same,expression level of IL-1β gene,interleukin-1β (IL-1β); [17],+
same,expression level of IL-1β gene,interleukin-1β (IL-1β); [13],+
same,expression level of LARC gene,[7]; [21],+
same,expression level of LARC gene,[7]; [17],+
same,expression level of LARC gene,[7]; [18],+/−
same,expression level of TNFα gene,[8]; [16],+/−
same,expression level of TNFα gene,[8]; [12],+/−
same,expression level of TNFα gene,[8]; [18],−
same,expression level of Gro1 gene,[9]; [21],+
same,expression level of Gro1 gene,[9]; [17],+
same,expression level of Gro1 gene,[9]; [13],+
same,expression level of RGS2 gene,[10]; [11],+/−
same,expression level of RGS2 gene,[10]; [19],+/−
same,expression level of RGS2 gene,[10]; [18],+/−
same,expression level of IL-6 gene,interleukin-6 (IL-6); [21],−
same,expression level of IL-6 gene,interleukin-6 (IL-6); [12],−
same,expression level of IL-6 gene,interleukin-6 (IL-6); [15],−
"12-o-tetradecanoylphorbol 13-acetate [TPA, reference compound]",expression level of SCO2 gene,[1]; [13],+
same,expression level of MDC gene,[2]; [15],−
same,expression level of PFC gene,[3]; [13],+
same,expression level of MIP2β gene,[4]; [13],++
same,expression level of MIP2α gene,[5]; [18],+
same,expression level of CD37 gene,CD37 antigen (CD37); [18],+/−
same,expression level of Lyz gene,lyzozyme (Lyz); [13],+/−
same,expression level of MRP8 gene,[6]; [13],+/−
same,expression level of IL-1β gene,interleukin-1β (IL-1β); [13],++
same,expression level of LARC gene,[7]; [18],++
same,expression level of TNFα gene,[8]; [18],+
same,expression level of Gro1 gene,[9]; [13],++
same,expression level of RGS2 gene,[10]; [18],+/−
same,expression level of IL-6 gene,interleukin-6 (IL-6); [15],+
"lipopolysaccharide [LPS, reference compound]",expression level of SCO2 gene,[1]; [13],−
same,expression level of MDC gene,[2]; [15],+
same,expression level of PFC gene,[3]; [13],−
same,expression level of MIP2β gene,[4]; [13],++
same,expression level of MIP2α gene,[5]; [18],+
same,expression level of CD37 gene,CD37 antigen (CD37); [18],−
same,expression level of Lyz gene,lyzozyme (Lyz); [13],+/−
same,expression level of MRP8 gene,[6]; [13],+/−
same,expression level of IL-1β gene,interleukin-1β (IL-1β); [13],+++
same,expression level of LARC gene,[7]; [18],+++
same,expression level of TNFα gene,[8]; [18],++
same,expression level of Gro1 gene,[9]; [13],+++
same,expression level of RGS2 gene,[10]; [18],−
same,expression level of IL-6 gene,interleukin-6 (IL-6); [15],+++
